In publication PMC2754045 (Biochemistry, 2009):
Like-named read-outs stand apart in the source and are kept apart here. Marks after values point to notes of the source that are not given here. Bridges are numbered along the chain shown (N, C = ends). Where no end group is shown, it is not given here.

Key:
mTRΔ8 [1] = target: T1, mTRΔ8 (Mus musculus, UniProt Q9JLT4); assay: Substrate reduction by truncated mammalian TR; format: biochemical; details: for pH optimum of substrate reduction: truncated Δ8 enzyme; for Reduction by the truncated enzyme (in words): direct reduction by the N-terminal reaction center
DmTRΔ8 [2] = target: T2, DmTRΔ8 (Drosophila melanogaster, UniProt P91938); assay: Substrate reduction by truncated Drosophila TR; format: biochemical
[3] = cited from earlier work
mTR-GCUG [4] = target: T3, mTR-GCUG (Mus musculus, UniProt Q9JLT4); assay: Substrate reduction by full-length wild type mammalian TR
DmTR-SCCS = DmTR-SCCS (Drosophila melanogaster, UniProt P91938); assay: Substrate reduction by full-length Drosophila TR
mTR-GCUG [5] = target: T3, mTR-GCUG; assay: Inhibition of TR by gold compounds; format: biochemical; details: full-length wild type (Sec) enzyme, 4 nM enzyme, 3 mM DTNB, pH 7.4
mTRΔ8 [6] = target: T1, mTRΔ8; assay: Inhibition of TR by gold compounds; format: biochemical; details: truncated enzyme missing C-terminal tail, 2 nM enzyme, 3 mM DTNB, pH 7.4
mTR-GCCG = mTR-GCCG (Mus musculus, UniProt Q9JLT4); format: biochemical; details: full-length enzyme without Sec (Cys2 mutant), 4 nM enzyme, 3 mM DTNB, pH 7.4
DmTRΔ8 [7] = target: T2, DmTRΔ8; details: pH 7.0; cited from earlier work
mTRΔ8 [8] = target: T1, mTRΔ8; details: pH 7.0; cited from earlier work

T2 sequence (P91938 1-483 isoform P91938-2 limits assumed): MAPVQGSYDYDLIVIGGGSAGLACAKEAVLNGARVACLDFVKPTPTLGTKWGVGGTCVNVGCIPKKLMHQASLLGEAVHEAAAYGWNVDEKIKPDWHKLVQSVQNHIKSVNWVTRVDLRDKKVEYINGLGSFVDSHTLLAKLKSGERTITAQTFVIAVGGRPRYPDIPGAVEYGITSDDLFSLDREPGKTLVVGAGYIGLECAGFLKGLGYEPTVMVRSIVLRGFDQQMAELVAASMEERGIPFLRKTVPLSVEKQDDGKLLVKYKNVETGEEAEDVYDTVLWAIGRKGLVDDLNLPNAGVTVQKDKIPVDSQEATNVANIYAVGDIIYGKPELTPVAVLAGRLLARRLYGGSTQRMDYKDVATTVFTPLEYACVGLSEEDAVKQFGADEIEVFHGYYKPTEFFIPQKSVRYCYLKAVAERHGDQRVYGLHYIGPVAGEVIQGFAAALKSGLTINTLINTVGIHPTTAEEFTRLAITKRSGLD
DmTR-SCCS, sequence (P91938 1-491 isoform P91938-2): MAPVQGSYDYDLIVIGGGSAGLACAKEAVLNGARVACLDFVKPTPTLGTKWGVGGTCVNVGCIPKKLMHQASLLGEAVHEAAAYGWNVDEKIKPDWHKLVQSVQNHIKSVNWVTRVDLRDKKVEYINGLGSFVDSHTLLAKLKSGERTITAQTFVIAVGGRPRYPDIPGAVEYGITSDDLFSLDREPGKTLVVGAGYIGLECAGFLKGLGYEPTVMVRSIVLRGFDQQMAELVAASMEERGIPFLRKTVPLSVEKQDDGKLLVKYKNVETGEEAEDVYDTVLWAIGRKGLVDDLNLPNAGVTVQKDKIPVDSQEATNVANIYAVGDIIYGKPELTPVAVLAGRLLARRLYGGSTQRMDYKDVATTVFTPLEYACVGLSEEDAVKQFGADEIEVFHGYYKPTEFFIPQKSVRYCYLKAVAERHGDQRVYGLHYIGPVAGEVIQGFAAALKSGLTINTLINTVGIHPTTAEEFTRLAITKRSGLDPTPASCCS

Molecule: O[C@@H]1CSSC[C@H]1O (relative stereo) [DTT(ox), trans-4,5-dihydroxy-1,2-dithiane]
- Activity at 5 mM Substrate (mTRΔ8 [1]; pH 7.0): 0.234 mol NADPH/min/mol TR
- Activity at 5 mM Substrate (DmTRΔ8 [2]; pH 7.0): 0.109 mol NADPH/min/mol TR
- Leaving Group pKa [3]: 9.2 ^e

Molecule: O=C(O)c1cc(SSc2ccc([N+](=O)[O-])c(C(=O)O)c2)ccc1[N+](=O)[O-] [DTNB, 5,5′dithio-bis(2-nitrobenzoic acid), reference compound]
- Activity at 5 mM Substrate (mTRΔ8 [1]; pH 7.0): 2430 mol NADPH/min/mol TR
- Activity at 5 mM Substrate (DmTRΔ8 [2]; pH 7.0): 519 mol NADPH/min/mol TR

Molecule: N[C@@H](CCC(=O)N[C@@H](CSN=O)C(=O)NCC(=O)O)C(=O)O [GSNO, S-nitrosoglutathione]
- Leaving Group pKa ([3]; HNO in GSNO): 4.7

Molecule: O=C(O)CCCC[C@@H]1CCSS1 [Lipoic Acid, lipoic acid]
- kcat increase compared to the WT enzyme at pH 7.0 (mTRΔ8 [1]; mTRΔ8 at pH 6.1): ~3.6 fold
- Activity at 5 mM Substrate (mTRΔ8 [1]; pH 6.1): 102 mol NADPH/min/mol TR
- Activity at 5 mM Substrate (mTRΔ8 [1]; pH 7.0): 87.7 mol NADPH/min/mol TR
- pH optimum of substrate reduction (mTRΔ8 [1]): 6.1
- pH optimum of substrate reduction (mTR-GCUG [4]; full-length enzyme): ~7.5
- pH optimum of substrate reduction (DmTR-SCCS; full-length DmTR): ~7.5
- Turnover faster in comparison to DTT(ox) (DmTRΔ8 [2]; 5 mM substrate, pH 7.0): 190 fold
- Activity at 5 mM Substrate (DmTRΔ8 [2]; pH 7.0): 20.8 mol NADPH/min/mol TR
- pH optimum of substrate reduction (DmTRΔ8 [2]; truncated DmTRΔ8): ~7.5

Molecule: CC(=O)OC[C@H]1O[C@@H]([S-])[C@H](OC(C)=O)[C@@H](OC(C)=O)[C@@H]1OC(C)=O.CCP(CC)CC.[Au+] [auranofin]
- IC50 (mTR-GCUG [5]): 75 nM
- IC50 (mTRΔ8 [6]): 850 nM

Molecule: OC[C@H]1O[C@H]([S-])[C@H](O)[C@@H](O)[C@@H]1O.[Au+] [aurothioglucose]
- IC50 (mTR-GCUG [5]): 83 nM
- IC50 (mTR-GCCG): 142 nM
- IC50 (mTRΔ8 [6]): 25 nM

Molecule: N[C@@H](CSSC[C@H](N)C(=O)O)C(=O)O [cystine]
- Reduction by the truncated enzyme (in words) (mTRΔ8 [1]): could not be reduced
- Reduction by the WT enzyme (in words) (mTR-GCUG [4]): cannot be reduced
- Leaving Group pKa ([3]; thiolate): ~ 8.3

Molecule: NC(=O)CCCCC1CCSS1 (centres unmarked) [lipoamide]
- Higher activity in presence of 50 mM acetate (mTRΔ8 [1]; pH 6.1): 23.6%
- Higher activity in presence of 50 mM acetate (mTRΔ8 [1]; pH 7.0): 17.5%
- Drop in Km compared to lipoic acid (mTRΔ8 [1]; truncated enzyme): ~3 fold
- pH optimum of substrate reduction (mTRΔ8 [1]): ~ 8.5

Molecule: O=[Se]([O-])[O-].[Na+].[Na+] [selenite, sodium selenite]
- Activity lower than the WT enzyme (mTRΔ8 [1]; mTRΔ8 versus WT, pH 7.0): 6 fold
- pH optimum of substrate reduction (mTRΔ8 [1]): ~6.0

Molecule: N[C@@H](C[Se][Se]C[C@H](N)C(=O)O)C(=O)O [selenocystine]
- Reduction by the truncated enzyme (in words) (mTRΔ8 [1]): cannot directly reduce
- pH optimum of substrate reduction (mTRΔ8 [1]): ~8.0
- Difference in activities between the mammalian enzyme and DmTR (DmTR-SCCS; pH 7.0, 91 μM substrate): ~ 3 fold

Molecule: O=S(O)O [sulfite]
- Activity as substrate (in words) (mTR-GCUG [4]; TR form not stated, data not shown): unable to detect activity

Molecule: PTPASCCS(ox): Cys1-Cys2 vicinal disulfide peptide substrate of DmTR (disulfide 6-7)
- Activity at 5 mM Substrate (DmTRΔ8 [7]): 233 mol NADPH/min/mol TR

Molecule: PTVTGCCG(ox): peptide containing a Cys1-Cys2 vicinal disulfide bond (8-membered ring) (disulfide 6-7)
- Activity at 5 mM Substrate (mTRΔ8 [8]): 0.153 mol NADPH/min/mol TR
